Columns and labels:
lactating Holstein cows = assay: Wisconsin Study: dietary monensin fed to lactating cows for 9 weeks; assay type: in vivo
Experimental: Methods: […] All cows received 11 g/ton Rumensin for a 5-week covariate period after which pens received 1 of 4 dietary treatments (n=3) formulated to provide 0 g/ton (Control, “CON”), 11 g/ton (R11), 14.5 g/ton (R14.5), or 18 g/ton (R18) of Rumensin for 9 weeks. Basal diet was 54% forage and 27% Neutral Detergent Fiber (NDF), 29% starch, and 2.3% Rumen Unsaturated Fatty Acid Load (RUFAL). The pen was the experimental unit, and data were analyzed using the Fit Model Procedure of JMP with treatment as a fixed effect and pen as a random effect. LS-means were determined and contrasts of CON vs. R11, CON vs. R14.5, CON vs. R18, and linear and quadratic effects were tested.

lactating dairy cows = assay: New York/Cornell Study: dietary monensin fed to lactating dairy cows; assay type: in vivo
From the text: Lactating dairy cows were used for the instant example. Methods: One-hundred ninety-two lactating cows (120±50 DIM) were randomly assigned to 12 pens each including 16 cows.

[1] = all treatments, not affected by treatment

For `CC[C@@]1([C@@H]2O[C@@H]([C@H]3O[C@@](O)(CO)[C@H](C)C[C@@H]3C)C[C@@H]2C)CC[C@H]([C@]2(C)CC[C@]3(C[C@H](O)[C@@H](C)[C@@H]([C@@H](C)[C@@H](OC)[C@H](C)C(=O)O)O3)O2)O1` [monensin], the DMI (lactating Holstein cows; R11, 11 g/ton) was 60 lb/d, the “De novo fatty acid yield” value (lactating Holstein cows; R11, 11 g/ton) was 0.99 g/100 g milk and the ECM (lactating Holstein cows; R11, 11 g/ton) was 106 lb/d. The “Estimated Dietary Energy” value (lactating Holstein cows; R11, 11 g/ton) was 1.70 Mcal/kg DM, the “Milk Fat” value (lactating Holstein cows; R11, 11 g/ton) was 4.13% and the “Milk Yield” value (lactating Holstein cows; R11, 11 g/ton) was 98 lb/d. For the same molecule, the Protein (lactating Holstein cows; R11, 11 g/ton) was 3.16%, the “Milk fat yield increase vs. CON” value (lactating Holstein cows; R11, 11 g/ton, P=0.04) was 0.08 kg/day and the “ECM/DMI increase vs. CON” value (lactating Holstein cows; R11, 11 g/ton, P=0.05) was 2.9%. For the same molecule, the “ECM increase vs CON” value (lactating Holstein cows; R11, 11 g/ton, P=0.09) was 1.3 kg/day, the DMI (lactating Holstein cows; R14.5, 14.5 g/ton) was 60 lb/d and the ECM (lactating Holstein cows; R14.5, 14.5 g/ton) was 105 lb/d. The “Estimated Dietary Energy” value (lactating Holstein cows; R14.5, 14.5 g/ton) was 1.71 Mcal/kg DM, the “Milk Fat” value (lactating Holstein cows; R14.5, 14.5 g/ton) was 4.04% and the “Milk Yield” value (lactating Holstein cows; R14.5, 14.5 g/ton) was 99 lb/d. The Protein (lactating Holstein cows; R14.5, 14.5 g/ton) was 3.14%, the “ECM/DMI increase vs. CON” value (lactating Holstein cows; R14.5, 14.5 g/ton, P=0.02) was 3.5% and the DMI (lactating Holstein cows; R18, 18 g/ton) was 58 lb/d. For the same molecule, the ECM (lactating Holstein cows; R18, 18 g/ton) was 102 lb/d, the “Estimated Dietary Energy” value (lactating Holstein cows; R18, 18 g/ton) was 1.73 Mcal/kg DM and the “Milk Fat” value (lactating Holstein cows; R18, 18 g/ton) was 3.97%. For the same molecule, the “Milk Yield” value (lactating Holstein cows; R18, 18 g/ton) was 97 lb/d, the Protein (lactating Holstein cows; R18, 18 g/ton) was 3.14% and the “Estimated dietary energy increase vs. CON” value (lactating Holstein cows; R18, 18 g/ton, P=0.01) was 3.0%. The “ECM/DMI increase vs. CON” value (lactating Holstein cows; R18, 18 g/ton, P=0.09) was 2.3%, the DMI (lactating Holstein cows; R18, 18 g/ton, listed as Rumensin) was 26.4 kg/day and the Milk Yield (lactating Holstein cows; [1]) was 44 kg/day. For the same molecule, the Milk fat percentage (lactating Holstein cows; [1]) was 4.0%, the Milk protein percentage (lactating Holstein cows; [1]) was 3.2% and the Milk protein yield (lactating Holstein cows; [1]) was 1.4 kg/day. The DMI (lactating dairy cows; R11, 11 g/ton) was 59 lb/d, the ECM (lactating dairy cows; R11, 11 g/ton) was 103 lb/d and the “Estimated Dietary Energy” value (lactating dairy cows; R11, 11 g/ton) was 1.65 Mcal/kg DM. The “Milk Fat” value (lactating dairy cows; R11, 11 g/ton) was 4.67%, the “Milk Yield” value (lactating dairy cows; R11, 11 g/ton) was 88 lb/d and the Protein (lactating dairy cows; R11, 11 g/ton) was 3.38%. The “Energy-corrected milk (ECM)” value (lactating dairy cows; R11 group, 11 g/ton) was 46.9 kg/day, the Milk Yield (lactating dairy cows; R11 group, 11 g/ton) was 39.9 kg/day and the Milk fat yield (lactating dairy cows; R11 group, 11 g/ton) was 1.83 kg/day. For the same molecule, the Milk protein yield (lactating dairy cows; R11 group, 11 g/ton) was 1.33 kg/day, the DMI (lactating dairy cows; R14.5, 14.5 g/ton) was 59 lb/d and the ECM (lactating dairy cows; R14.5, 14.5 g/ton) was 104 lb/d. For the same molecule, the “Estimated Dietary Energy” value (lactating dairy cows; R14.5, 14.5 g/ton) was 1.65 Mcal/kg DM, the “Milk Fat” value (lactating dairy cows; R14.5, 14.5 g/ton) was 4.71% and the “Milk Yield” value (lactating dairy cows; R14.5, 14.5 g/ton) was 87 lb/d. For the same molecule, the Protein (lactating dairy cows; R14.5, 14.5 g/ton) was 3.37%, the “Energy-corrected milk (ECM)” value (lactating dairy cows; R14.5 group, 14.5 g/ton) was 47.1 kg/day and the “FA unsaturation compared to CON” value (lactating dairy cows; R14.5 group, 14.5 g/ton) was “significantly reduced”. The Milk Yield (lactating dairy cows; R14.5 group, 14.5 g/ton) was 39.7 kg/day, the Milk fat yield (lactating dairy cows; R14.5 group, 14.5 g/ton) was 1.85 kg/day and the Milk protein yield (lactating dairy cows; R14.5 group, 14.5 g/ton) was 1.33 kg/day. The DMI (lactating dairy cows; R18, 18 g/ton) was 61 lb/d, the ECM (lactating dairy cows; R18, 18 g/ton) was 103 lb/d and the “Estimated Dietary Energy” value (lactating dairy cows; R18, 18 g/ton) was 1.68 Mcal/kg DM. The “Milk Fat” value (lactating dairy cows; R18, 18 g/ton) was 4.67%, the “Milk Yield” value (lactating dairy cows; R18, 18 g/ton) was 87 lb/d and the Protein (lactating dairy cows; R18, 18 g/ton) was 3.39%. For the same molecule, the DMI (lactating dairy cows; R18 group, 18 g/ton) was “increased numerically”, the “Energy-corrected milk (ECM)” value (lactating dairy cows; R18 group, 18 g/ton) was 46.8 kg/day and the “FA unsaturation compared to CON” value (lactating dairy cows; R18 group, 18 g/ton) was “significantly reduced”. For the same molecule, the Milk Yield (lactating dairy cows; R18 group, 18 g/ton) was 39.6 kg/day, the Milk fat yield (lactating dairy cows; R18 group, 18 g/ton) was 1.83 kg/day and the Milk protein yield (lactating dairy cows; R18 group, 18 g/ton) was 1.33 kg/day. The Milk fat percentage (lactating dairy cows; all treatment groups) was “greater than 4.6%”, the “Milk true protein percent” value (lactating dairy cows; all treatment groups) was at least 3.35% and the “Increase in ECM” value (lactating dairy cows; increasing monensin supplementation, non-significant) was 2%.
